Values after ≈ are worked out from the molar mass of the structure shown. Values joined by “and” are separate entries in the source; they are usually repeats but may differ in a detail not shown here. Identical values can stand only once. Like-named read-outs stand apart in the source and are kept apart here.
How the values were obtained:
S. Aureus = test: MIC, S. Aureus; format: cell-based; details: for MIC: Staphylococcus aureus
Method: (§1) The MIC assays are carried out in 150 μL volume in duplicate in 96-well clear flat-bottom plates. The bacterial suspension from an overnight culture growth in appropriate medium is added to a solution of test compound in 4% DMSO in water. Final bacterial inoculum is approximately 10^5-10^6 CFU/well. […] Both ampicillin and tetracycline are used as antibiotic-positive controls in each screening assay for S. pyogenes, E. coli imp-, E. coli, S. aureus, E. faecalis, K. pneumoniae and P. vulgaris. Ciprofloxacin is used as an antibiotic positive control in each screening assay for P. aeruginosa.

E. Coli = test: MIC, E. Coli; format: cell-based; details: for MIC: Escherichia coli
Method: as §1

[1] = target: 18S ribosomal subunit RNA target; test: Mass spectrometry based binding assay (FTICR), 18S
Method: (§2) In a typical experiment, 10 μL of an aqueous solution containing 100 mM ammonium acetate buffer, 2.5 or 5 μM of each RNA, and 33% isopropyl alcohol (to aid ion desolvation) was prepared with different concentrations of each ligand or ligand mixture Samples were introduced into the electrospray ionization source (negative ionization mode) at 1 μL/min and ions were stored for 1 sec in an RF-only hexapole following desolvation. The abundances were integrated from the respective ions for free RNA and the ligand-RNA complex. The primary (1:1 RNA:ligand) and secondary (1:2 complex, if observed). […] The peak ratios were measured at each concentration, then a plot of complex/free RNA versus concentration of ligand added was fitted to a second (or higher) order binding polynomial to determine the KD.

[2] = target: 16S ribosomal subunit RNA target; test: Mass spectrometry based binding assay (FTICR), 16S
Method: as §2, with “[…],” for “2.5 or 5 μM of each RNA,”

[3] = tested on: E. coli S30 bacterial extract (pBestLuc firefly luciferase reporter); test: Coupled bacterial transcription/translation assay; format: biochemical; details: read-out: Trans/Trans IC50
Method: The DNA template, pBestLuc™ (Promega), is a plasmid containing a reporter gene for firefly luciferase fused to a strong tac promoter and ribosome binding site. Messenger RNA from 1 μg pBestLuc is transcribed and translated in E. coli S30 bacterial extract in the presence or absence of test compound. Compounds are tested in a black 96 well microtiter plate with an assay volume of 35 μL. […] The transcription/translation reaction is incubated for 35 minutes at 37° C. followed by detection of functional luciferase with the addition of 30 μL LucLite™ (Packard). Light output is quantitated on a Packard TopCount.

[4] = tested on: Staphylococcus aureus (Smith Strain ATCC 13709); test: Staphylococcus aureus mouse protection assay; format: in vivo, mice; details: Staph Conc. 10^6, 10% Mucin, the 13th table
Method: Two of the novel aminoglycoside compounds of the invention were examined for their anitbacterial activity against staphylococcus aureus. Mice were fed with autoclaved commercial food pellets and sterile water ad libitum. Animals were inoculated intraperitoneally with 0.5 mL/mouse of the indicated concentration of S. aureus (ATCC 13709) containing 10% mucin. There were 10 mice in each treatment group and compounds were administered subcutaneously one and 3 hour after infection. Compounds 15a (R4═R5═CH3) and 15j (R4═H, R5═(CH2)2C6H5)) were used at 75 mg/kg, 37.5 mg/kg, 18.8 mg/kg, 9.4 mg/kg, 4.7 mg/kg, 2.3 mg/kg, 1.17 mg/kg and 0.5 mg/kg. Amakacin, paromomycin and neomycin were used as the positive controls at concentrations of 2 mg/kg, 1 mg/kg and 0.5 mg/kg.
Test compound was administered as an aqueous buffer solution (phosphate buffered saline (PBS), pH=7.4).

Compound: NC[C@@H]1O[C@H](O[C@H]2[C@@H](OCCOCCCC3CCCCC3)[C@H](O[C@@H]3[C@@H](O)[C@H](N)C[C@H](N)[C@H]3O[C@H]3O[C@H](CO)[C@@H](O)[C@H](O)[C@H]3N)O[C@@H]2CO)[C@H](N)[C@@H](O)[C@@H]1O [Compound 12b]
- MIC (S. Aureus; Example 107): 5 to 10 µM (≈ 3.92 to 7.84 µg/mL)
- MIC (E. Coli; Example 107): 20 to 40 µM (≈ 15.7 to 31.4 µg/mL)

Compound: NC[C@@H]1O[C@H](O[C@H]2[C@@H](OCCCc3ccccc3)[C@H](O[C@@H]3[C@@H](O)[C@H](N)C[C@H](N)[C@H]3O[C@H]3O[C@H](CO)[C@@H](O)[C@H](O)[C@H]3N)O[C@@H]2CO)[C@H](N)[C@@H](O)[C@@H]1O [Compound 14b]
- MIC (S. Aureus; Example 107): 3 to 5 µM (≈ 2.2 to 3.67 µg/mL)
- MIC (E. Coli; Example 107): 20 to 40 µM (≈ 14.7 to 29.4 µg/mL)

Compound: NCCCCNCC1OC(OC2C(N)CC(N)C(O)C2OC2OC(CO)C(OC3OC(CN)C(O)C(O)C3N)C2O)C(N)C(O)C1O (stereo not drawn) [Compound 15f]
- MIC S. Aureus (S. Aureus; Example 108): 10 to 20 µM
- Kd ([1]; Example 108): 6000 nM
- MIC E. Coli. (E. Coli; Example 108): 2.5-5^ uM
- Kd ([2]; Example 108): 6300 nM

Compound: Cc1ccc(CCNCC2OC(OC3C(N)CC(N)C(O)C3OC3OC(CO)C(OC4OC(CN)C(O)C(O)C4N)C3O)C(N)C(O)C2O)cc1 (stereo not drawn) [Compound 15g]
- MIC S. Aureus (S. Aureus; Example 109): 0.6 to 1.2 µM
- MIC E. Coli. (E. Coli; Example 109): 2.5-5^ uM

Compound: CN(CCc1ccccc1)CC1OC(OC2C(N)CC(N)C(O)C2OC2OC(CO)C(OC3OC(CN)C(O)C(O)C3N)C2O)C(N)C(O)C1O (stereo not drawn) [Compound 15k]
- MIC S. Aureus (S. Aureus; Example 109): 0.3 to 0.6 µM
- MIC E. Coli. (E. Coli; Example 109): 2.5-5^ uM

Compound: NCC1OC(OC2C(CO)OC(OC3C(O)C(N)CC(N)C3OC3OC(CNCCc4ccc(C5CCCCC5)cc4)C(O)C(O)C3N)C2O)C(N)C(O)C1O (stereo not drawn) [Compound 15m]
- MIC S. Aureus (S. Aureus; Example 109): 0.3 to 0.6 µM
- MIC E. Coli. (E. Coli; Example 109): 1.3 to 2.5 µM

Compound: COc1ccccc1CCNCC1OC(OC2C(N)CC(N)C(O)C2OC2OC(CO)C(OC3OC(CN)C(O)C(O)C3N)C2O)C(N)C(O)C1O (stereo not drawn) [Compound 15n]
- MIC S. Aureus (S. Aureus; Example 109): 0.2 to 0.3 µM and 0.3 to 0.6 µM

Compound: NCC1OC(OC2C(CO)OC(OC3C(O)C(N)CC(N)C3OC3OC(CNCCc4ccc(C(F)(F)F)cc4)C(O)C(O)C3N)C2O)C(N)C(O)C1O (stereo not drawn) [Compound 15q]
- MIC S. Aureus (S. Aureus; Example 109): 0.3 to 0.6 µM
- MIC E. Coli. (E. Coli; Example 109): 1.3 to 2.5 µM

Compound: COc1ccc(CCNCC2OC(OC3C(N)CC(N)C(O)C3OC3OC(CO)C(OC4OC(CN)C(O)C(O)C4N)C3O)C(N)C(O)C2O)cc1 (stereo not drawn) [Compound 15r]
- MIC S. Aureus (S. Aureus; Example 109): 0.3 to 0.6 µM
- MIC E. Coli. (E. Coli; Example 109): 1.3 to 2.5 µM

Compound: NCC1OC(OC2C(CO)OC(OC3C(O)C(N)CC(N)C3OC3OC(CN4CCC5CCCCC54)C(O)C(O)C3N)C2O)C(N)C(O)C1O (stereo not drawn) [Compound 15s]
- MIC S. Aureus (S. Aureus; Example 109): 0.3 to 0.6 µM
- MIC E. Coli. (E. Coli; Example 109): 1.3 to 2.5 µM

Compound: NC1CC(N)C(OC2OC(CO)C(O)C(O)C2N)C(OC2OC(CO)C(O)C2OCCNCCc2ccccc2)C1O (stereo not drawn) [Compound 30c]
- MIC S. Aureus (S. Aureus; Example 107): 12 to 25 µM
- MIC E. Coli. (E. Coli; Example 107): >100 µM

Compound: NCC1OC(OC2C(CF)OC(OC3C(O)C(N)CC(N)C3OC3OC(CO)C(O)C(O)C3N)C2O)C(N)C(O)C1O (stereo not drawn) [Compound 61, 5″-deoxy-5″-fluoro paromomycin]
- MIC (S. Aureus; Example 105): 12 to 25 µM (≈ 7.41 to 15.4 µg/mL)
- MIC (E. Coli; Example 105): > 50 µM
- Kd ([2]; FTICR mass spectrometry, run at 100 nM RNA, Example 105): 1100 nM
- IC50 ([3]; Example 105): 300 nM

Compound: NC[C@@H]1O[C@H](O[C@H]2[C@@H](O)[C@H](O[C@@H]3[C@@H](O)[C@H](N)C[C@H](N)[C@H]3O[C@H]3O[C@H](CN)[C@@H](O)[C@H](O)[C@H]3N)O[C@@H]2CO)[C@H](N)[C@@H](O)[C@@H]1O [Neomycin B, reference compound]
- Kd ([1]; Example 106): 300 nM
- Kd ([2]; Example 106): 40 nM
- IC50 ([3]; Example 106): 200 nM

Compound: neomycin [reference compound]
- # Dead mice/Total mice in group ([4]; 0.5 mg/kg subcutaneously): 7/10
- # Dead mice/Total mice in group ([4]; 1 mg/kg subcutaneously): 10/10
- # Dead mice/Total mice in group ([4]; 2 mg/kg subcutaneously): 4/10
